Laboratory results as given in US20160228444A1, “NUCLEOSIDE ANALOGS AND USES THEREOF” (Ramot at Tel-Aviv University Ltd., priority 2015, published 2016).
Where a name gives a salt, the structure may show the parent alone. Read-outs that look alike come from different tables or passages of the source.

Columns and labels:
MDA-231 cells = assay: Median-effect drug interaction, Hoechst viability, 72 h; assay type: cell-based, human; conditions: Homo sapiens
Experimental: (§1) The ratios of the drug combination were based on the ratio of their IC50 of each drug alone. Cell viability was determined by MTT assay, as described hereinabove. The drugs were added to the cells and incubated for 72 h.
(§2) Drug interaction in adherent cells was evaluated as above except that the viability was determined by Hoechst assay.

T47D cells = assay: as above; assay type: cell-based, human
Experimental: as §1, §2

[1] = test system: NCI-N87 gastric carcinoma cells; assay: as above; assay type: cell-based, human; conditions: Homo sapiens
Experimental: as §1, §2

[2] = test system: murine mammary carcinoma 4T1; assay: FACS viability, annexin V-FITC / PI; assay type: cell-based; conditions: AN446 24 h; 200 nM Dox 5 h; combination compared to Dox alone; FIG. 1C
Experimental: (§3) Cell viability by flow cytometry analysis (FACS) analysis was determined using the Mebcyto apoptosis kit (MBL-Japan). The cell lines 4T1, U251 (2×10^5 cells/well), astrocytes and the cardiomyoblastic cell line H9C2 (5×10^5 cells/well) were seeded in six-well plates. Following treatment they were trypsinized, washed with PBS, resuspended in […] of binding buffer and double-stained with annexin V-FITC and propidium iodide (PI) according to the manufacturer's instructions. The stained cells were subjected to FACS analyses (Calibur cytometer, Becton Dickinson) where 30,000 cells were allowed to flow for each determination point and the percentage of cells in each state (viability or death) was defined by their distribution in fluorescence dot-plots using WinMdi 2.8 software (Scripps Research Institute, La-Jolla, USA).
(§4) The apoptotic effect of AN446, Dox and their combination was evaluated in U251 and 4T1 cancer cells, and in the non-cancerous rat cardiomyoblast cell line (H9C2) and in primary rat astrocytes, using procedures previously described for AN7 [Tarasenko et al., Invest New Drugs 2012, 30:130-143].

[3] = test system: U251 MG human glioma cells; assay: FACS viability, annexin V-FITC / PI; assay type: cell-based; conditions: AN446 24 h; 200 nM Dox 5 h; combination compared to Dox alone; FIG. 1C
Experimental: as §3, §4

HO-1 = HO-1 protein and mRNA in tumor and heart of xenograft mice (Western blot, qRT-PCR); assay type: in vivo; conditions: single agent
Experimental: (§5) Tumors and hearts of the mice were rapidly removed, frozen on dry ice and kept at −70° C. Tissue was then homogenized and RNA and proteins extracted using the NucleoSpin® RNA/Protein kit according to the manufacturer's protocol (Macherey-Nagel, GmbH & Co KG).
(§6) Total RNA ([…]) was primed by oligo dT and reverse-transcribed by Verso cDNA kit according to the manufacturer's protocol (Thermo Scientific). Analyses of qPCR were performed with Kapa Sybr® Fast (Kapa Biosystems) on a Step One Plus thermocycler (Applied Biosystems). The comparative threshold method was used to calculate the relative gene expression. Values were normalized against glyceraldehyde 3-phosphate dehydrogenase (GAPDH). Expression of the GAPDH mRNA in each individual sample was used to normalize the dataset. The sequences of the primers were as follows: […]
(§7) Protein levels in the samples were determined with the BCA protein assay kit (Pierce). The samples were subjected to Western blot analyses. The expression of proteins was visualized using their specified primary antibodies followed by the secondary IgG IRDye® 680DX antibody. Each detected band was quantified using the Odyssey Infrared Imaging System (LI-COR Biosciences) and normalized to the level of actin. The fold increase of a specific protein was determined by the ratio of the band intensity obtained from treated and untreated samples.
The effect of the drugs on the expression of genes associated with cell survival and death was examined by following changes in transcription and protein expression in tissue samples taken from the mice with glioblastoma xenografts. Heme oxygenase (HO-1) is known to play a protective role in the heart, whereas, in many cancers it is expressed and promotes growth and survival of neoplastic cells.

TNF-α = assay: Serum TNF-α in U251 xenograft mice (ELISA); assay type: in vivo; conditions: single agent, FIG. 8C
Experimental: (§8) AN446 was tested in vivo using a xenograft of glioblastoma (U251 cells) in mice.

[4] = test system: U251 human glioblastoma xenograft; assay: Glioblastoma xenograft model (survival, body weight, tumor volume, tumor weight, Ki-67)
Experimental: Xenograft of glioblastoma: 8- to 10-week-old male Hsd athymic FOXN (Harlan, Jerusalem, Israel) were inoculated sc in the flanks with 5×10^6 U251 cells. Tumor length (L) and width (W) were measured with a caliper twice weekly. Tumor volumes were calculated according to the formula: (L×W2)/2. When the tumor was established (volume of 50-100 mm^3) the mice were randomly divided into six groups treated with: vehicle control (saline); ip Dox 4 mg/kg once weekly; po AN446 25 mg/kg thrice a week; po AN7 50 mg/kg thrice a week; combination of AN446+Dox (4 mg/kg ip Dox once a week and 25 mg/kg po AN446 thrice a week); AN7+Dox (4 mg/kg ip Dox once a week and 50 mg/kg po AN7 thrice weekly). Untreated, non-bearing tumor naive mice were maintained under the same conditions. The experiment was terminated after 25 treatment days, the mice were sacrificed under CO2 and their tumors and hearts were removed, weighed and divided into parts dedicated for immunohistochemistry (IHC) and the rest were frozen (−80° C.) for Western blot and Quantitative PCR (qRT-PCR) analyses.
Inactivation of avidin-biotin nonspecific binding was prevented by a blocking kit, according to the manufacturer's protocol (Vector Laboratories). […] The secondary antibody was biotin conjugated goat anti-rabbit or anti-mouse IgG. Slides were then stained with the ABC peroxidase system, developed with diaminobenzidine (DAB) (Vector Laboratories) and counterstained with hematoxylin (Bio-Optica, Milano, Italy). The slides were examined using an Olympus BX 52 light microscope, and images were taken with an Olympus DP50 digital camera system.
Mice were implanted subcutaneously with U251 cells and when the tumors reached 50-100 mm^3 treatments were initiated. Survival was evaluated by the Kaplan-Meier end-product analysis, where treatment failure (the experimental end points) was a loss of ˜20% body weight, or a tumor volume of >1 cm^3.

fibrous collagen = assay: Fibrosis in tumor, heart and kidney of U251 xenograft mice (Picrosirius Red / Fast Green); assay type: in vivo; conditions: single agent
Experimental: as §8

VEGF = VEGF immunohistochemistry in tumor and heart of xenograft mice; assay type: in vivo; conditions: FIG. 4F
Experimental: (§9) The pro-angiogenic factors basic fibroblast growth factor (bFGF) and vascular endothelial growth factor (VEGF) are potent angiogenic stimulators. The expression of bFGF in the tumor and in the heart was evaluated by Western blot and qRT-PCR analyses and expression of VEGF by IHC.

bFGF = bFGF protein and mRNA in tumor and heart of xenograft mice (Western blot, qRT-PCR); assay type: in vivo; conditions: single agent
Experimental: as §5, §6, §7, §9

c-Myc = c-Myc and p-c-Myc (Thr 58) Western blot in tumor and heart of xenograft mice; assay type: in vivo
Experimental: as §7
The c-Myc protein is an important regulator of normal cell physiology and in tumor cells it plays an important role in activating oncogenic pathways [Soucek & Evan, Curr Opin Genet Dev 2010, 20:91-95].

HUT-78 CTCL cells = assay: Median-effect drug interaction, MTT viability, 72 h; assay type: cell-based, human
Experimental: (§10) Cell viability was determined by an MTT cell viability assay after 48 hours. MyLa cells (10^4 cells/well), Hut78 cells (5×10^3 cells/well) and normal PBLs (10^5 cells/well) were seeded in 96 well-plates. The PBLs were activated with 40 μg/10^6 cells of phytohemagglutinine (PHA) for 24 h before the experiment.
as §1

PBL = assay: as above; assay type: cell-based; conditions: Homo sapiens
Experimental: as §10, §1

Structure (SMILES): COc1cccc2c1C(=O)c1c(O)c3c(c(O)c1C2=O)C[C@@](O)(C(=O)CO)C[C@@H]3O[C@H]1C[C@H](N)[C@H](O)[C@H](C)O1 [Dox, Doxorubicin hydrochloride]
- IC50 (MDA-231 cells; MDA-MB-231, MDA-231, Dox in combination with AN446, read-out: Dox com IC50): 5.3 nM
- IC50 (MDA-231 cells; MDA-MB-231, MDA-231, Dox in combination with SAHA, read-out: Dox com IC50): 4.3 nM
- IC50 (MDA-231 cells; MDA-MB-231, MDA-231, single agent, read-out: Dox IC50): 10.2 nM
- IC50 (T47D cells; Homo sapiens, Dox in combination with AN446, read-out: Dox com IC50): 7.6 nM
- IC50 (T47D cells; Homo sapiens, Dox in combination with SAHA, read-out: Dox com IC50): 5.2 nM
- IC50 (T47D cells; Homo sapiens, single agent, read-out: Dox IC50): 19 nM
- IC50 (T47D cells; single agent, hydrochloride, read-out: Dox IC50): 19.1 nM
- IC50 ([1]; NCI-N87, NCI-N87, Dox in combination with AN446, read-out: Dox com IC50): 8.5 ± 1 nM
- IC50 ([1]; NCI-N87, NCI-N87, single agent, read-out: Dox IC50): 30 ± 1.3 nM
- viability / mortality of 4T1 cells [2]: significantly reduced the viability
- viability / mortality of U251 cells [3]: significantly reduced the viability
- HO-1 mRNA in the heart (HO-1; heart): decreased HO-1 mRNA
- HO-1 expression in the heart (decrease) (HO-1; heart, FIGS. 4D, 4E): ~5 fold
- tumor HO-1 protein expression (decrease) (HO-1; tumor, FIGS. 4A, 4B): unchanged
- serum levels of TNF-α (TNF-α): increased serum levels of TNF-α
- body weight ([4]; Dox 4 mg/kg ip once a week, from day 13): drastic decrease in body weight
- treatment failure ([4]; Dox 4 mg/kg ip once a week, weight loss contributing): 60%
- Ki-67 positive cells in tumors ([4]; single agent vs vehicle, FIGS. 3E, 3F): considerably more Ki-67 positive cells were detected in tumors of the vehicle-treated mice
- survival of mice until end of experiment (day 25) ([4]; single agent: AN446 25 mg/kg or AN7 50 mg/kg po thrice weekly, Dox 4 mg/kg ip once a week, FIG. 3A): 40%
- fibrosis in the heart (fibrous collagen; heart, FIGS. 8A-8C): induced fibrosis
- fibrosis in the kidneys (fibrous collagen; kidneys, FIG. 8A): induced fibrosis
- fibrosis in the tumor (fibrous collagen; tumor, FIG. 8A): reduced fibrosis
- VEGF expression in the heart (VEGF): reduced
- expression of mouse bFGF protein in the heart (bFGF; heart, FIG. 4D): decreased significantly
- bFGF mRNA in the tumor (bFGF; tumor, FIG. 6): significantly reduced the bFGF mRNA
- expression of bFGF in tumors (bFGF; tumor, FIGS. 4A, 4B): decreased significantly
- c-Myc protein expression in the hearts (c-Myc; heart, FIG. 5B): repressed
- c-Myc protein expression in tumors (c-Myc; tumor, FIG. 5A): unaffected
- IC50 (HUT-78 CTCL cells; HUT-78, single agent, hydrochloride, read-out: Dox IC50): 31 nM
- IC50 (HUT-78 CTCL cells; Homo sapiens, HuT78, HUT-78, Dox in combination with AN446, read-out: Dox com IC50): 11 nM
- IC50 (HUT-78 CTCL cells; Homo sapiens, HuT78, HUT-78, Dox in combination with SAHA, read-out: Dox com IC50): 12 nM
- IC50 (HUT-78 CTCL cells; Homo sapiens, HuT78, HUT-78, single agent, read-out: Dox IC50): 30.8 nM
- IC50 (PBL; Dox in combination with AN446, read-out: Dox com IC50): 15 nM
- IC50 (PBL; Dox in combination with SAHA, read-out: Dox com IC50): 20 nM
- IC50 (PBL; single agent, read-out: Dox IC50): 70 nM
